# Laboratory results taken from US20030224024A1, “Compositions comprising cyclopentane derivatives and their use” (priority 2002, published 2003).
# How the values were obtained:
# isolated stratum corneum [1] = assay: Keratolytic power, Test 2: counting corneocytes released from patches of isolated stratum corneum; assay type: cell-based; details: 1% by weight solution in PBS + 0.1% Triton X100, pH 7.4, 37° C., 24 hours; for number of liberated corneocytes per microlitre, Sample 1 (3 tests): Test 2, Sample 1, average over three tests; for number of liberated corneocytes per microlitre, Sample 2 (3 tests): Test 2, Sample 2, average over three tests; for number of liberated corneocytes per microlitre, Average: Test 2, average of Samples 1 and 2
# Protocol: (§1) The keratolytic power of a number of compounds of the disclosure was studied. This test comprises counting corneocytes released following incubation of patches of isolated stratum corneum in the presence of the test compounds.
# (§2) Stratum corneum isolated by trypsin/heat from surgical plasties was used. A number of different stratum corneum samples were used. Discs of 4 mm in diameter were punched out and placed at the bottom of a 96-well plate.
# A 1% by weight solution of the compound of Example 1 or salicylic acid, was prepared in a PBS buffer supplemented with 0.1% of Triton X100. The pH of the solution was adjusted to 7.4.
# 50 microlitres of test solution or of control solution (PBS buffer supplemented with 0.1% of Triton X100) were added to each well. Incubation was carried out at 37° C. with stirring for 24 hours.
# (§3) 10 microlitres of solution were then withdrawn and were placed in a Malassez cell. The liberated corneocytes were counted under the microscope.
# The results obtained are as follows, expressed as the number of liberated corneocytes per microlitre. Corneocyte fragments were not counted.
# isolated stratum corneum [2] = assay: Keratolytic power, Test 1: counting corneocytes released from patches of isolated stratum corneum; assay type: cell-based; details: 1% by weight solution in PBS + 0.1% Triton X100, pH 7.4, 37° C., 24 hours
# Protocol: as §1, §2
# A 1% by weight solution of the compound of Example 1, or (1R,2R)-3-oxo-2-(2Z)pentylcyclopentaneacetic acid (comparative), was prepared in a PBS buffer supplemented with 0.1% of Triton X100. The pH of the solution was adjusted to 7.4.
# 50 microlitres of test solution or of control solution (PBS buffer supplemented with 0.1% of Triton:X100) were added to each well. Incubation was carried out at 37° C. with stirring for 24 hours.
# as §3
# The results obtained are as follows, expressed as the number of liberated corneocytes per microlitre, averaged over three tests. Corneocyte fragments were not counted.
SMILES,"number of liberated corneocytes per microlitre, Sample 1 (3 tests) (isolated stratum corneum [1])","number of liberated corneocytes per microlitre, Sample 2 (3 tests) (isolated stratum corneum [1])","number of liberated corneocytes per microlitre, Average (isolated stratum corneum [1])","number of liberated corneocytes per microlitre, Average (3 tests per sample, 3 different samples) (isolated stratum corneum [2])"
"CC/C=C\C[C@H]1C(=O)CC[C@@H]1CC(=O)O (racemic) [Example 1, (±)(1R,2R)-3-oxo-2-[(2Z)-2-pentenyl]cyclopentaneacetic acid]",80 ± 4 liberated corneocytes per microlitre,64 ± 11 liberated corneocytes per microlitre,72 ± 7 liberated corneocytes per microlitre,15 ± 5 liberated corneocytes per microlitre
"CC/C=C\C[C@H]1C(=O)CC[C@@H]1CC(=O)O [Comparative, (1R,2R)-3-oxo-2-(2Z)pentylcyclopentaneacetic acid]",–,–,–,12 ± 4 liberated corneocytes per microlitre
"O=C(O)c1ccccc1O [Salicylic acid, salicylic acid]",33 ± 20 liberated corneocytes per microlitre,21 ± 8 liberated corneocytes per microlitre,27 ± 14 liberated corneocytes per microlitre,–
